# Reference: US20250264460A1, “METHOD OF MEASURING LEVEL OF IMMUNE SUPPRESSION” (THE JOHNS HOPKINS UNIVERSITY, priority 2022, published 2025)
# Entries after “also recorded” stand apart in the source; their conditions may differ. Like-named read-outs stand apart in the source and are kept apart here.
# Assays:
# PBMCs [1] = assay: Oil red O staining of lipid droplets in PBMCs from SOTRs, ex vivo; set-up: species or system human; conditions: PBMCs from SOTRs on high dose MMF
# Protocol: (§1) FIGS. 4A-4J show high dose MMF inhibits mitochondrial fatty acid oxidation. FIGS. 4A-4B show normalized mean fluorescent intensity (MFI) of CD11c and CPT1a on total class-switched B cells segregated by dose of MMF; high (>1000), low (<1000), or none. […] FIGS. 4D-4E show oxygen consumption rate (OCR) following mitochondrial stress test of PBMCs plated directly post thaw from SOTRs or HCs (FIG. 4D) or healthy PBMCs treated in vitro with high or low dose MPA 48 hours prior to plating (FIG. 4E).
# Due to the association with MMF dose and CPT1a expression, PBMCs from SOTRs receiving high dose, low dose, or no MMF were evaluated ex vivo for alterations in lipid metabolism. Immunosuppression dose is largely determined by estimation of graft function and the measurement of the blood levels of immunosuppressive drugs, although neither method is sensitive or specific for determining the current immunosuppressive status, particularly for MMF, where drug levels are not routinely measured. […] Mitochondrial bioenergetics were next measured directly ex vivo via the Agilent Seahorse XF Cell Mito Stress Test at basal levels and in response to mitochondrial stress, in the absence of additional stimulation or exogenous substrates. The oxygen consumption rate (OCR) was used as a measurement of mitochondrial respiration/oxidative phosphorylation (OXPHOS). […]
# SARS-COV-2 spike = format: in vivo, human; conditions: SOTRs on immunosuppression, two weeks post dose three
# class-switched B cells = assay: Flow cytometry of CD11c and CPT1a on class-switched B cells of SOTRs by MMF dose; format: in vivo, human; conditions: SOTRs on high dose MMF or MPA (>1000 mg/per day or >721 mg/day)
# Protocol: as §1
# PBMCs [2] = assay: Seahorse XF Cell Mito Stress Test (OCR) of PBMCs from SOTRs, ex vivo; format: in vivo, human
# Protocol: as §1
# Due to the association with MMF dose and CPT1a expression, PBMCs from SOTRs receiving high dose, low dose, or no MMF were evaluated ex vivo for alterations in lipid metabolism. Immunosuppression dose is largely determined by estimation of graft function and the measurement of the blood levels of immunosuppressive drugs, although neither method is sensitive or specific for determining the current immunosuppressive status, particularly for MMF, where drug levels are not routinely measured. […] Mitochondrial bioenergetics were next measured directly ex vivo via the Agilent Seahorse XF Cell Mito Stress Test at basal levels and in response to mitochondrial stress, in the absence of additional stimulation or exogenous substrates. The oxygen consumption rate (OCR) was used as a measurement of mitochondrial respiration/oxidative phosphorylation (OXPHOS).
# healthy PBMCs [3] = assay: Oil red O staining of healthy PBMCs treated in vitro with MPA; format: cell-based, human; conditions: high dose MPA (5 μM)
# Protocol: Genes associated lipid synthesis were increased in total B cells from SOTRs (R or NR) in SCR.NA seq (FIG. 14A). PCA plot of lipidomics performed on total B cells derived from SOTRs or HCs (FIG. 14B). […] Accumulation of lipid droplets were measured by Oil Red O in PBMCs from HC or SOTR (FIG. 14D).
# T cells and B cells = assay: Cell Trace Violet proliferation of stimulated T cells and B cells in the presence of MPA; format: cell-based, human; conditions: 6 days
# PBMCs [4] = assay: Viability of PBMCs after MPA treatment; format: cell-based, human; conditions: PBMCs 48 hours after 5 μM MPA, versus untreated
# healthy PBMCs [5] = assay: Seahorse OCR of healthy PBMCs treated in vitro with MPA; format: cell-based, human; conditions: for OCR: 48 hours prior to plating; for Effect on OCR increase of low dose MPA-treated cells: etomoxir (2 μM) 1 hour prior to measurement
# Protocol: as §1
# FIGS. 8A-81 show high dose MPA induces mitochondrial unresponsiveness. […] FIGS. 8D-8G show healthy PBMCs were treated with 5 μM MPA for 24 hours in complete media then rested overnight in low-nutrient media prior to analysis. Oxygen consumption rate (OCR) of exposed to long chain fatty acid palmitate (165 μM) (FIG. 8D), medium chain fatty acid octanoic acid (200 μM) (FIG. 8E), glucose (10 mM) and pyruvate (1 mM) (FIG. 8F), or glutamine (2 mM) (FIG. 8G) 20 minutes prior to analysis. FIGS. 8H-81 show fold change in baseline (FIG. 8H) or maximal (FIG. 81) OCR when healthy PBMCs were supplied with indicated substrates.
# To test this hypothesis, cells were exposed to low dose etomoxir, an inhibitor of CPT1a transport of FAs into mitochondria. […] To confirm that high dose MPA inhibits FAO, palmitate (a long chain FA) was added exogenously to cultures 20 minutes prior to evaluation of mitochondrial respiration.
# B cells and T cells = assay: OCR of B cells and T cells treated with MPA and etomoxir; format: cell-based, human
# Description: FIGS. 16A-16C show low dose MPA induces CPT1a-dependent FAO in B cells but not T cells.
# [6] = etomoxir (CPT1a inhibition), MPA-treated
structure (smiles),measurement,setting,value
"COc1c(C)c2c(c(O)c1C/C=C(\C)CCC(=O)OCCN1CCOCC1)C(=O)OC2 [MMF, mycophenolate mofetil]",Intracellular lipid droplets (Oil Red O),PBMCs [1],higher levels of Oil Red O staining; also recorded: accumulation of intracellular lipid droplets
same,Association of treatment with anti-S IgG response to third vaccine dose,SARS-COV-2 spike,specifically associated with a lack of response
same,Association of treatment with anti-S IgG response to third vaccine dose,SARS-COV-2 spike; listed as mycophenolate mofetil,all participants who failed to respond to a 3rd dose received
same,CD11c expression on class switched B cells,class-switched B cells,significantly lower
same,CPT1a expression on class switched B cells,class-switched B cells,significantly lower
same,Oxygen consumption rate (OCR),PBMCs [2]; PBMCs from SOTRs on high dose MMF,reduced oxygen consumption rate; also recorded: reduced OCR compared to other SOTRs
same,Basal respiration (OCR),"PBMCs [2]; PBMCs from SOTRs on low dose MMF, no exogenous substrates",significantly higher basal respiration compared to HCs
"COc1c(C)c2c(c(O)c1C/C=C(\C)CCC(=O)O)C(=O)OC2 [MPA, mycophenolic acid]",Accumulation of lipids (Oil Red O),healthy PBMCs [3],increased accumulation of lipids
same,Accumulation of lipids (Oil Red O),healthy PBMCs [3]; listed as mycophenolic acid,Accumulation of lipid droplets was seen
same,Lymphocyte proliferation,T cells and B cells; high dose MPA (5 μM),completely inhibit proliferation
same,Lymphocyte proliferation,T cells and B cells; low dose MPA (0.05 μM),limit proliferation
same,Cell viability,PBMCs [4],equivalent cell viability
same,CD11c expression on class switched B cells,class-switched B cells,significantly lower
same,CPT1a expression on class switched B cells,class-switched B cells,significantly lower
same,Response to mitochondrial stress tests,healthy PBMCs [5]; high dose MPA,comparable manner to untreated cells
same,"Mitochondrial oxidation of supplemented substrates (medium-chain fatty acids, glucose, glutamine)",healthy PBMCs [5]; high dose MPA (5 μM),inhibits mitochondrial oxidation of various substrates; also recorded: diminished mitochondrial oxidation of various supplemented substrates
same,OCR,healthy PBMCs [5]; high dose MPA (5 μM),reduced OCR compared to low dose
same,Oxidation of exogenous palmitate (OCR),"healthy PBMCs [5]; high dose MPA, palmitate (165 μM) 20 minutes prior",not able to oxidize exogenous long-chain fatty acid palmitate; also recorded: unable to oxidize palmitate
same,OCR,healthy PBMCs [5]; low dose MPA,directly induced increased OCR; also recorded: increased OCR compared to untreated PBMCs
same,OCR of B cells,B cells and T cells; high dose MPA,blunted the increased OCR in B cells
same,OCR of B cells versus T cells,B cells and T cells; low dose MPA,only B cells increased their OCR
CCOC(=O)[C@@]1(CCCCCCOc2ccc(Cl)cc2)CO1 [etomoxir],Effect on OCR increase of low dose MPA-treated cells,healthy PBMCs [5],completely reversed the increase in OCR
same,Effect on OCR increase of low dose MPA-treated cells,healthy PBMCs [5]; listed as Etomoxir,completely reversed the increase of OCR
same,OCR of B cells,B cells and T cells; [6],reduced OCR to baseline levels in B cells
same,OCR of T cells,B cells and T cells; [6],had no effect on T cells
